Test system: yeast genes (level of expressed mRNA)
Test: DNA chip analysis of expressed mRNA of yeast genes after 2 h culture with a toxic chemical substance
Assay type: cell-based, Saccharomyces cerevisiae S288C
Experimental: Yeast (Saccharomyces cerevtisiae S288C (α SUC2mal mel gap2 CUP1)) were cultured at 25° C. on YPD medium (yeast extract 1%, polypepton 2%, glucose 2%). One of toxic chemical substances was added to the cell at logarithmic growth phase, and the cell was further cultured for two hours. Cell was cultured without any chemical substance in the same condition, and was used as control. Concentrations of the chemical substances were defined to inhibit the growth of the yeast but not lead to death.
After the completion of cultivation, the culture was centrifuged to collect the cells. To the cells, sodium acetate buffer (50 mM sodium acetate, 10 mM EDTA, 1% SDS) was added, and the mixture was shaken at 65° C. for five minutes, followed by returning to room temperature, and obtaining the supernatant, which procedure was repeated two times. To the supernatant, ½ amount of a solution of phenol/chloroform was added, and the mixture was centrifuged to give a supernatant, which was added with an equal amount of chloroform, and the mixture was centrifuged to give a supernatant. To the supernatant, an equal amount of isopropanol containing 0.3 M sodium acetate was added, and the mixture was allowed to stand at room temperature for 30 minutes, after which the mixture was centrifuged to give a sediment of the whole RNAs. Seventy % ethanol was added to the sediment, and the mixture was again centrifuged to give a sediment, which was then dried and dissolved in water. mRNA was isolated from the whole RNAs as followings. In view of the fact that a poly A chain is attached to the 3′ terminus of mRNA, a polynucleotide having a poly T structure which was immobilized on the surface of latex beads was used to trap the mRNA, and then the mRNA was washed and eluted with spine column (Oligotex-dT30<Super>mRNA Purification Kit, Takara). Reverse transcription of the mRNA was conducted with a reverse transcriptase (Super Script II Reverse Transcriptase; catalogue No. 18064-014, GibcoBRL) using fluorescence-labeled nucleotides to give cDNAs that were introduced with Cy3-dUTP or Cy5-dUTP during the reverse transcription.
The labeled cDNAs were dissolved in TE buffer (10 mM Tris-HCl/1 mM EDTA, pH8.0), and the solution was dropped on the DNA chip containing the whole genes of yeast (DNA Chip Research Inc. Japan) so that the cDNAs were hybridized on the DNA chip at 65° C. for over 12 hours. The fluoresces intensity of the DNA chip was read with a scanner, and the ratio relative to the fluorescence intensity resulting from the absence of chemical substance was estimated as the following, which is shown in Tables 1 to 9: [formula]
In the Tables, “Intensity” indicated in the rightmost column is a value of the level of expressed mRNA of each gene in control cells as divided by the average level of the expressions of the whole genes.

Measured: The level of expressed mRNA in the presence of chemical substance/The level of expressed mRNA in the absence of chemical substance

O=[N+]([O-])c1cc[n+]([O-])c2ccccc12 [(5), 4-nitroquinolin-N-oxide]
0.9: yeast gene YKL165C | yeast gene YMR094W | yeast gene YMR226C | yeast gene YNL006W | yeast gene YOR383C
2.8: yeast gene YKL139W
1.8: yeast gene YNR010W
1.1: yeast gene YKL193C | yeast gene YLR120C | yeast gene YLR356W | yeast gene YOR036W | yeast gene YOR124C | yeast gene YOR132W | yeast gene YOR288C
1.3: yeast gene YKL041W | yeast gene YLR327C | yeast gene YMR276W | yeast gene YPR108W
2.0: yeast gene YOR259C
0.8: yeast gene YOR198C | yeast gene YPL149W
1.0: yeast gene YLR178C | yeast gene YMR004W | yeast gene YOR355W
0.7: yeast gene YKL039W | yeast gene YMR104C | yeast gene YMR275C | yeast gene YOL013C | yeast gene YOR157C | yeast gene YOR181W
1.7: yeast gene YPR103W
1.9: yeast gene YKL013C
0.6: yeast gene YKL096W
1.2: yeast gene YLR391W | yeast gene YNL007C | yeast gene YNL093W | yeast gene YOR117W | yeast gene YOR185C | yeast gene YPL109C | yeast gene YPL154C
1.6: yeast gene YLR136C | yeast gene YMR219W | yeast gene YOL164W
1.5: yeast gene YLR362W | yeast gene YNL333W | yeast gene YOR261C
1.4: yeast gene YLR250W | yeast gene YLR429W | yeast gene YNR069C | yeast gene YPL089C

From patent US20050112573A1, “Method of detecting toxic substance” (priority 2001, published 2005)
